Measurements taken from publication PMC10905675, “INX-315, a Selective CDK2 Inhibitor, Induces Cell Cycle Arrest and Senescence in Solid Tumors” (Cancer Discovery, 2023).

Assays:
Experiment in all cases: SelectScreen ZLYTE
Format in all cases: biochemical
Conditions in all cases: INX-0315 at 100nM
[1] = molecular target: T1, JAK2 JH1 JH2 (Homo sapiens, UniProt O60674)
T1 construct: JAK2 JH1 JH2; purchased Thermo Fisher Scientific SelectScreen (plus Nanosyn / Reaction Biology for CDK/cyclin lines)
Text: (§1) INX-315 was first evaluated in the SelectScreen Biochemical Kinase Profiling at Thermo Fisher Scientific (Madison, WI). The primary screen consisted of INX-315 dosed at a single concentration of 100 nmol/L in 1% DMSO across each platform within the SelectScreen array of assays, LanthaScreen Eu Kinase Binding Assay; AdaptaScreen; and Z'LyteScreen using preestablished conditions at Thermo Fisher Scientific as shown in Supplementary Table S2. […] The follow-up screen consisted of 10-point dose–response curves for INX-315 from 1 µmol/L to 0.0495 nmol/L.

[2] = molecular target: T2, PAK6 (Homo sapiens, UniProt Q9NQU5)
T2 construct: purchased Thermo Fisher Scientific SelectScreen (plus Nanosyn / Reaction Biology for CDK/cyclin lines)
Text: as §1

[3] = molecular target: T3, AMPK A2/B1/G1 (Homo sapiens, UniProt P54646)
T3 construct: purchased Thermo Fisher Scientific SelectScreen (plus Nanosyn / Reaction Biology for CDK/cyclin lines)
Text: as §1

[4] = molecular target: T4, PAK4 (Homo sapiens, UniProt O96013)
T4 construct: purchased Thermo Fisher Scientific SelectScreen (plus Nanosyn / Reaction Biology for CDK/cyclin lines)
Text: as §1

[5] = molecular target: T5, NEK2 (Homo sapiens, UniProt P51955)
T5 construct: purchased Thermo Fisher Scientific SelectScreen (plus Nanosyn / Reaction Biology for CDK/cyclin lines)
Text: as §1

[6] = molecular target: T6, ABL1 G250E (Homo sapiens, UniProt P00519, G250E)
T6 construct: purchased Thermo Fisher Scientific SelectScreen (plus Nanosyn / Reaction Biology for CDK/cyclin lines)
Text: as §1

[7] = molecular target: T7, TBK1 (Homo sapiens, UniProt Q9UHD2)
T7 construct: purchased Thermo Fisher Scientific SelectScreen (plus Nanosyn / Reaction Biology for CDK/cyclin lines)
Text: as §1

[8] = molecular target: T8, RPS6KA4 (MSK2) (Homo sapiens, UniProt O75676)
T8 construct: purchased Thermo Fisher Scientific SelectScreen (plus Nanosyn / Reaction Biology for CDK/cyclin lines)
Text: as §1

[9] = molecular target: T9, ABL1 T315I (Homo sapiens, UniProt P00519, T315I)
T9 construct: purchased Thermo Fisher Scientific SelectScreen (plus Nanosyn / Reaction Biology for CDK/cyclin lines)
Text: as §1

[10] = molecular target: T10, RPS6KB2 (p70S6Kb) (Homo sapiens, UniProt Q9UBS0)
T10 construct: purchased Thermo Fisher Scientific SelectScreen (plus Nanosyn / Reaction Biology for CDK/cyclin lines)
Text: as §1

[11] = molecular target: T11, NTRK2 (TRKB) (Homo sapiens, UniProt Q16620)
T11 construct: purchased Thermo Fisher Scientific SelectScreen (plus Nanosyn / Reaction Biology for CDK/cyclin lines)
Text: as §1

[12] = molecular target: T12, PRKCG (PKC gamma) (Homo sapiens, UniProt P05129)
T12 construct: purchased Thermo Fisher Scientific SelectScreen (plus Nanosyn / Reaction Biology for CDK/cyclin lines)
Text: as §1

[13] = molecular target: T13, GRK7 (Homo sapiens, UniProt Q8WTQ7)
T13 construct: purchased Thermo Fisher Scientific SelectScreen (plus Nanosyn / Reaction Biology for CDK/cyclin lines)
Text: as §1

[14] = molecular target: T14, PDK1 (Homo sapiens, UniProt O15530)
T14 construct: purchased Thermo Fisher Scientific SelectScreen (plus Nanosyn / Reaction Biology for CDK/cyclin lines)
Text: as §1

[15] = molecular target: T15, TAOK2 (TAO1) (Homo sapiens, UniProt Q9UL54)
T15 construct: purchased Thermo Fisher Scientific SelectScreen (plus Nanosyn / Reaction Biology for CDK/cyclin lines)
Text: as §1

[16] = molecular target: T16, IKBKE (IKK epsilon) (Homo sapiens, UniProt Q14164)
T16 construct: purchased Thermo Fisher Scientific SelectScreen (plus Nanosyn / Reaction Biology for CDK/cyclin lines)
Text: as §1

[17] = molecular target: T17, STK22D (TSSK1) (Homo sapiens, UniProt Q9BXA7)
T17 construct: purchased Thermo Fisher Scientific SelectScreen (plus Nanosyn / Reaction Biology for CDK/cyclin lines)
Text: as §1

[18] = molecular target: T18, CSNK1G2 (CK1 gamma 2) (Homo sapiens, UniProt P78368)
T18 construct: purchased Thermo Fisher Scientific SelectScreen (plus Nanosyn / Reaction Biology for CDK/cyclin lines)
Text: as §1

[19] = molecular target: T19, CDK18/cyclin Y (Homo sapiens, UniProt Q07002)
T19 construct: purchased Thermo Fisher Scientific SelectScreen (plus Nanosyn / Reaction Biology for CDK/cyclin lines)
Text: as §1

[20] = molecular target: T20, CSNK1E (CK1 epsilon) (Homo sapiens, UniProt P49674)
T20 construct: purchased Thermo Fisher Scientific SelectScreen (plus Nanosyn / Reaction Biology for CDK/cyclin lines)
Text: as §1

[21] = molecular target: T21, CDKL5 (Homo sapiens, UniProt O76039)
T21 construct: purchased Thermo Fisher Scientific SelectScreen (plus Nanosyn / Reaction Biology for CDK/cyclin lines)
Text: as §1

[22] = molecular target: T22, MAPK13 (p38 delta) (Homo sapiens, UniProt O15264)
T22 construct: purchased Thermo Fisher Scientific SelectScreen (plus Nanosyn / Reaction Biology for CDK/cyclin lines)
Text: as §1

[23] = molecular target: T23, KSR2 (Homo sapiens, UniProt Q6VAB6)
T23 construct: purchased Thermo Fisher Scientific SelectScreen (plus Nanosyn / Reaction Biology for CDK/cyclin lines)
Text: as §1

[24] = molecular target: T24, NEK1 (Homo sapiens, UniProt Q96PY6)
T24 construct: purchased Thermo Fisher Scientific SelectScreen (plus Nanosyn / Reaction Biology for CDK/cyclin lines)
Text: as §1

[25] = molecular target: T25, PRKCD (PKC delta) (Homo sapiens, UniProt Q05655)
T25 construct: purchased Thermo Fisher Scientific SelectScreen (plus Nanosyn / Reaction Biology for CDK/cyclin lines)
Text: as §1

[26] = molecular target: T26, EPHA2 (Homo sapiens, UniProt P29317)
T26 construct: purchased Thermo Fisher Scientific SelectScreen (plus Nanosyn / Reaction Biology for CDK/cyclin lines)
Text: as §1

[27] = molecular target: T27, EPHB3 (Homo sapiens, UniProt P54753)
T27 construct: purchased Thermo Fisher Scientific SelectScreen (plus Nanosyn / Reaction Biology for CDK/cyclin lines)
Text: as §1

[28] = molecular target: T28, CAMK2B (CaMKII beta) (Homo sapiens, UniProt Q13554)
T28 construct: purchased Thermo Fisher Scientific SelectScreen (plus Nanosyn / Reaction Biology for CDK/cyclin lines)
Text: as §1

[29] = molecular target: T29, SRPK1 (Homo sapiens, UniProt Q96SB4)
T29 construct: purchased Thermo Fisher Scientific SelectScreen (plus Nanosyn / Reaction Biology for CDK/cyclin lines)
Text: as §1

[30] = molecular target: T30, AMPK (A1/B2/G3) (Homo sapiens, UniProt Q13131)
T30 construct: purchased Thermo Fisher Scientific SelectScreen (plus Nanosyn / Reaction Biology for CDK/cyclin lines)
Text: as §1

[31] = molecular target: T31, GRK5 (Homo sapiens, UniProt P34947)
T31 construct: purchased Thermo Fisher Scientific SelectScreen (plus Nanosyn / Reaction Biology for CDK/cyclin lines)
Text: as §1

[32] = molecular target: T32, PDGFRA D842V (Homo sapiens, UniProt P16234, D842V)
T32 construct: purchased Thermo Fisher Scientific SelectScreen (plus Nanosyn / Reaction Biology for CDK/cyclin lines)
Text: as §1

[33] = molecular target: T33, STK23 (MSSK1) (Homo sapiens, UniProt Q9UPE1)
T33 construct: purchased Thermo Fisher Scientific SelectScreen (plus Nanosyn / Reaction Biology for CDK/cyclin lines)
Text: as §1

[34] = molecular target: T34, STK4 (MST1) (Homo sapiens, UniProt Q13043)
T34 construct: purchased Thermo Fisher Scientific SelectScreen (plus Nanosyn / Reaction Biology for CDK/cyclin lines)
Text: as §1

[35] = molecular target: T35, MST4 (Homo sapiens, UniProt Q9P289)
T35 construct: purchased Thermo Fisher Scientific SelectScreen (plus Nanosyn / Reaction Biology for CDK/cyclin lines)
Text: as §1

[36] = molecular target: T36, PAK1 (Homo sapiens, UniProt Q13153)
T36 construct: purchased Thermo Fisher Scientific SelectScreen (plus Nanosyn / Reaction Biology for CDK/cyclin lines)
Text: as §1

[37] = molecular target: T37, MET (cMet) (Homo sapiens, UniProt P08581)
T37 construct: purchased Thermo Fisher Scientific SelectScreen (plus Nanosyn / Reaction Biology for CDK/cyclin lines)
Text: as §1

T11 sequence (Q16620 32-822): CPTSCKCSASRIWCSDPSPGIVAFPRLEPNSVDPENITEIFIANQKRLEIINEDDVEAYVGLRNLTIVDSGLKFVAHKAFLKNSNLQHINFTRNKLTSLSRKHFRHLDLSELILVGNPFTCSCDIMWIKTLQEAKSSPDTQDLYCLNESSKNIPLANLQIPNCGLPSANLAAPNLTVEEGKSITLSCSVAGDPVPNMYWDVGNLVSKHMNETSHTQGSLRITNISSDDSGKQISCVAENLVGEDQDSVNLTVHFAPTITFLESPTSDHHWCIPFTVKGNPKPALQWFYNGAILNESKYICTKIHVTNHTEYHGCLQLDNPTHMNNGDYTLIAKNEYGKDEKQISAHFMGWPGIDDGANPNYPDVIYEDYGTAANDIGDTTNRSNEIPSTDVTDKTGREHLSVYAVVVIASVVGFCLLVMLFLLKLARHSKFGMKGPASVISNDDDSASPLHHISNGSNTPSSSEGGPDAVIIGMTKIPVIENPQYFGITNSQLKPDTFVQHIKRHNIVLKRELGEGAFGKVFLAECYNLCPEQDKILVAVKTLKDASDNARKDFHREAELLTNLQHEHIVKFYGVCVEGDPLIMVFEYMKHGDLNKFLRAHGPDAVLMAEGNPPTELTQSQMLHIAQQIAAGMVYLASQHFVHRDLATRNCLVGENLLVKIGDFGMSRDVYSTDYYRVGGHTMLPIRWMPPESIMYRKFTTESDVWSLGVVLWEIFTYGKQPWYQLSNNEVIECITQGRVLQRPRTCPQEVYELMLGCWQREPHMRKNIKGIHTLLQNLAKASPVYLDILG
T30 sequence (Q13131 whole entry): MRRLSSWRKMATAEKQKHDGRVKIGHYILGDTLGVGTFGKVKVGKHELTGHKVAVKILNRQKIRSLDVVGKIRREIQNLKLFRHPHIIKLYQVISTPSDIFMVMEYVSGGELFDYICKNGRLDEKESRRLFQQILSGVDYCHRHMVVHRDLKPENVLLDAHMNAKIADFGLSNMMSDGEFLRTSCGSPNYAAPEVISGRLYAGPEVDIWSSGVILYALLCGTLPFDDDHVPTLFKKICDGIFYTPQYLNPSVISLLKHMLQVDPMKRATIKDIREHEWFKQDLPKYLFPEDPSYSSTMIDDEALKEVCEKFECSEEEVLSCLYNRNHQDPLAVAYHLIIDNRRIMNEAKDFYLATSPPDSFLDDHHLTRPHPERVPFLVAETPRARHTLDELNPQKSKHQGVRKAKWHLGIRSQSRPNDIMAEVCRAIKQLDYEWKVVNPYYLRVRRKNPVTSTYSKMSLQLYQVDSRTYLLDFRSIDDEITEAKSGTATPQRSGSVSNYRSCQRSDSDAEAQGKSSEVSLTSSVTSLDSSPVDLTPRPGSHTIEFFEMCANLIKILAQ
T30 sequence (O43741 whole entry partner): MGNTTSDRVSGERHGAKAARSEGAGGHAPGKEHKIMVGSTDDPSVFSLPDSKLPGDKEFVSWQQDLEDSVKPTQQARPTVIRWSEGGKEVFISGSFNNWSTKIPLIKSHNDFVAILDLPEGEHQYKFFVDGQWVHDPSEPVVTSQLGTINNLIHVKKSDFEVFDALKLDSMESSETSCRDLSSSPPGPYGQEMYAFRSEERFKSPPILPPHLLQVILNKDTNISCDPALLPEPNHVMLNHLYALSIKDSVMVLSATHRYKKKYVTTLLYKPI
T30 sequence (Q9UGI9 whole entry partner): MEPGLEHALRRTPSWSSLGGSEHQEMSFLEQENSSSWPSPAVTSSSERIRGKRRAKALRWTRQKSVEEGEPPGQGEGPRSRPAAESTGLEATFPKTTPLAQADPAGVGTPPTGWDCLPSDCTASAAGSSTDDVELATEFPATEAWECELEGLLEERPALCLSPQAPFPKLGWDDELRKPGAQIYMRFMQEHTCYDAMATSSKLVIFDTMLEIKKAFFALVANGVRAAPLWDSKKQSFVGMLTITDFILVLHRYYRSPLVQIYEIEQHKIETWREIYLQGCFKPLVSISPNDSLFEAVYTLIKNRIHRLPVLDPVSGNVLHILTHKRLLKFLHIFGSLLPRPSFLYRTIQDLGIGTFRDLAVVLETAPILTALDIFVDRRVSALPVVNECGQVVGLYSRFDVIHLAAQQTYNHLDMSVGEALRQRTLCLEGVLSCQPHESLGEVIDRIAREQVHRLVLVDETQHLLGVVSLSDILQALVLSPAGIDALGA
T20 sequence (P49674 whole entry): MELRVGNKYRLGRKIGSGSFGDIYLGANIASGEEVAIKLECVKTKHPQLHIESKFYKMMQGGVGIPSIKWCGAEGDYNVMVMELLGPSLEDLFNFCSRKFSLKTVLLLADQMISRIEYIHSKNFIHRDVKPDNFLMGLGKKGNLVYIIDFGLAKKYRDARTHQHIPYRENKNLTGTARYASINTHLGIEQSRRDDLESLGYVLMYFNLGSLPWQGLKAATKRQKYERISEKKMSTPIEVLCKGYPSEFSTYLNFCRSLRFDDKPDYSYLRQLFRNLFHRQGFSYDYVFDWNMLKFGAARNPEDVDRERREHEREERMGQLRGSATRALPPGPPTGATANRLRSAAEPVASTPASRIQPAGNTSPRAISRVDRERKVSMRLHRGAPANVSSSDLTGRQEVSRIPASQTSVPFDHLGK
T34 sequence (Q13043 whole entry): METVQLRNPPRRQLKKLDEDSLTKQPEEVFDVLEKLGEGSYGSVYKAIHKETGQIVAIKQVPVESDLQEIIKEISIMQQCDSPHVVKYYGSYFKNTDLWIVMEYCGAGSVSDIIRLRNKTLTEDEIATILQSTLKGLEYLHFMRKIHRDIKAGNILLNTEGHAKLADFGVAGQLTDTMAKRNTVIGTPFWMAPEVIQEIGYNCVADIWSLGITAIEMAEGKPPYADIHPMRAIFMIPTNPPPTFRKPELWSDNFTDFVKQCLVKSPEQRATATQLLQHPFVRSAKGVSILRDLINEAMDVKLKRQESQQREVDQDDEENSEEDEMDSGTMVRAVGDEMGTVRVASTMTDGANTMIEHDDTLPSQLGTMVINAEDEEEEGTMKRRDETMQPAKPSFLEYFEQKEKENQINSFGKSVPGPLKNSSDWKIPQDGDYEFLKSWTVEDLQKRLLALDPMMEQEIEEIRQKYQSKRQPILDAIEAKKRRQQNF
T3 sequence (P54646 whole entry): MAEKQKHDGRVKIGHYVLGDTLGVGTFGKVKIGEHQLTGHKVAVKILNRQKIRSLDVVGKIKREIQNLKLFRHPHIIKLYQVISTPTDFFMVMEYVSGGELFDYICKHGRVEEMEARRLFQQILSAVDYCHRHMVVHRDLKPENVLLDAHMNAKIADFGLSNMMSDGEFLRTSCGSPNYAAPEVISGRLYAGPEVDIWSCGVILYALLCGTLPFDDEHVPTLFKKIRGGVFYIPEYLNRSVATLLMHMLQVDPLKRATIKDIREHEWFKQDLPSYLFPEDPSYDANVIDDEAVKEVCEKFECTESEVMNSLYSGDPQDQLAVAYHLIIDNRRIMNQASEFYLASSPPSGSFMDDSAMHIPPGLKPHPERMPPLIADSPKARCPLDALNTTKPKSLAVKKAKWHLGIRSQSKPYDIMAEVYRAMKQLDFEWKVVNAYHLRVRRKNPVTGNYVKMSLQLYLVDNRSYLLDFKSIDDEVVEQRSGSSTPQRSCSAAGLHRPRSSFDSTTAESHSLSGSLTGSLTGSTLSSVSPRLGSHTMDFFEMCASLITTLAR
T3 sequence (Q9Y478 whole entry partner): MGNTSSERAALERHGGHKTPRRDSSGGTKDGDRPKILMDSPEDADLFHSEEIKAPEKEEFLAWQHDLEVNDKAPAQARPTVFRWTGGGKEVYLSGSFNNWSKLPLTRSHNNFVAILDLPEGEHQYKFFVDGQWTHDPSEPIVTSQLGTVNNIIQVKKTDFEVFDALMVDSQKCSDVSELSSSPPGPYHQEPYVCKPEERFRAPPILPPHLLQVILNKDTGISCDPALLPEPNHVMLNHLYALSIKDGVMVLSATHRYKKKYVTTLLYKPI
T3 sequence (P54619 whole entry partner): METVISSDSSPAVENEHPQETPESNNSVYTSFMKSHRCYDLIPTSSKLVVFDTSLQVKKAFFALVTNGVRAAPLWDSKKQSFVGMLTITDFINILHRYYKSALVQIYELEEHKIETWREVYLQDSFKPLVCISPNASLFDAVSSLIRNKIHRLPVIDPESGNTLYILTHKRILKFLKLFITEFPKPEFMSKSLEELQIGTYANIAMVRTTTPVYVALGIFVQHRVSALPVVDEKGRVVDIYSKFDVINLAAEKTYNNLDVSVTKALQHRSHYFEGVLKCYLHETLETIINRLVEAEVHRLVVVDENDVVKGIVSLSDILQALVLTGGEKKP
T4 sequence (O96013 whole entry): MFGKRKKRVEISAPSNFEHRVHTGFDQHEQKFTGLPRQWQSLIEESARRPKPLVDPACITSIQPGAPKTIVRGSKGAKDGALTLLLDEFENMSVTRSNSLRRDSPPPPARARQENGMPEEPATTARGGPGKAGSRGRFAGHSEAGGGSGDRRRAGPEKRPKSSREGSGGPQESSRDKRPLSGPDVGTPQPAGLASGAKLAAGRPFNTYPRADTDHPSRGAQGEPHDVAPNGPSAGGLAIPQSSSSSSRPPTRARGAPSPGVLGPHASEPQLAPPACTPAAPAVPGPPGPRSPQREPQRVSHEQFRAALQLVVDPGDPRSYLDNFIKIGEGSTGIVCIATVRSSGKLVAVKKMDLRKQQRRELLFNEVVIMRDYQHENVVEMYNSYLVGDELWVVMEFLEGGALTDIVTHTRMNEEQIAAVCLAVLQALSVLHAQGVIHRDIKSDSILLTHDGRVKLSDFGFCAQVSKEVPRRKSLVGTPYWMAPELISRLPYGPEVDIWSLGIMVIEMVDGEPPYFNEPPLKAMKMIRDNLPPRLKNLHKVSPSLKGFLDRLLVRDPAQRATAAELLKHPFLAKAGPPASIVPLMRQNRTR

With `NS(=O)(=O)c1ccc(Nc2ncc3cc4n(c3n2)C2(CCCCC2)C(=O)NN4)cc1` [INX-315] the inhibition at 0.1 µM [1] was 44%, the inhibition at 0.1 µM [2] was 19% and the inhibition at 0.1 µM [3] was 5%. For the same compound, the inhibition at 0.1 µM [4] was 7%, the inhibition at 0.1 µM [5] was 3% and the inhibition at 0.1 µM [6] was 7%. For the same compound, the inhibition at 0.1 µM [7] was 5%, the inhibition at 0.1 µM [8] was 4% and the inhibition at 0.1 µM [9] was 10%. For the same compound, the inhibition at 0.1 µM [10] was 4%, the inhibition at 0.1 µM [11] was 52% and the inhibition at 0.1 µM [12] was 7%. The inhibition at 0.1 µM [13] was 62%, the inhibition at 0.1 µM [14] was 7% and the inhibition at 0.1 µM [15] was 10%. It also gave an inhibition at 0.1 µM [16] of 10%, an inhibition at 0.1 µM [17] of 11% and an inhibition at 0.1 µM [18] of 3%. It also gave an inhibition at 0.1 µM [19] of 9%, an inhibition at 0.1 µM [20] of -5% and an inhibition at 0.1 µM [21] of -1%. The inhibition at 0.1 µM [22] was 5%, the inhibition at 0.1 µM [23] was 7% and the inhibition at 0.1 µM [24] was -10%. For the same compound, the inhibition at 0.1 µM [25] was -5%, the inhibition at 0.1 µM [26] was 14% and the inhibition at 0.1 µM [27] was 3%. It also gave an inhibition at 0.1 µM [28] of 17%, an inhibition at 0.1 µM [29] of 7% and an inhibition at 0.1 µM [30] of 60%. It also gave an inhibition at 0.1 µM [31] of 24%, an inhibition at 0.1 µM [32] of 13% and an inhibition at 0.1 µM [33] of 6%. It also gave an inhibition at 0.1 µM [34] of 26%, an inhibition at 0.1 µM [35] of -4% and an inhibition at 0.1 µM [36] of 6%. It also gave an inhibition at 0.1 µM [37] of 6%.
